Measurements published in patent US20240400555A1 (Initial Therapeutics, Inc., priority 2023, published 2024).

test system: HCT-116 Firefly-luciferase reporter cells; assay: Cellular c-MYC Reporter Assay; type: cell-based; details: Homo sapiens; untitled table following Table 8a; HCT-116 Firefly-luciferase reporter cells, 24 h; read-out: pIC50 (converted)
Protocol: HCT-116 Firefly-luciferase reporter cells (BPS Bioscience) were seeded in 96-well tissue-culture treated sterile plates (Greiner Bio-One) at 5e4 cells/mL in 100 μL complete growth media (McCoy's 5A+10% FBS, +1% Pen-Strep, +1% G418). Cells were incubated at 37° C. with 5% CO2 for 4-6 h then treated with 3× compound solution in 50 μL complete growth media for a final volume of 150 μL per well with 0.2% DMSO. After 24 h incubation at 37° C. with 5% CO2, plates were allowed to equilibrate to RT for 20 min then developed by addition of 100 μL ONE-Glo Luciferase detection reagent (Promega), incubated at RT for 10 min. Luminescence was recorded using a SpectraMax i3x plate reader (Molecular Devices) and analyzed using Prism GraphPad 9 software.

IC50 | Compound
692 nM | O=C(c1ccc(-n2nnc3cccnc32)cc1F)N(c1nccc2sc(/C=C/CO)cc12)[C@@H]1CCCNC1 [Example 158, (R,E)-4-(3H-[1,2,3]triazolo[4,5-b]pyridin-3-yl)-2-fluoro-N-(2-(3-hydroxyprop-1-en-1-yl)thieno[3,2-c]pyridin-4-yl)-N-(piperidin-3-yl)benzamide]
79.4 nM | CCc1nnn(-c2ccc(C(=O)N(c3nccc4cccc(C)c34)[C@@H]3CCCNC3)c(F)c2)n1 [Example 142, (R)-4-(5-ethyl-2H-tetrazol-2-yl)-2-fluoro-N-(8-methylisoquinolin-1-yl)-N-(piperidin-3-yl)benzamide]
490 nM | Cc1cc(C)c2c(N(C(=O)N3CCC(c4cc(C)no4)CC3)[C@@H]3CCCNC3)nccc2c1 [Example 278, (R)—N-(6,8-dimethylisoquinolin-1-yl)-4-(3-methylisoxazol-5-yl)-N-(piperidin-3-yl)piperidine-1-carboxamide]
166 nM | Cc1cn(-c2ccc(C(=O)N(c3nccc4cccc(C)c34)[C@@H]3CCCNC3)cc2)nn1 [Example 236, (R)-4-(4-methyl-1H-1,2,3-triazol-1-yl)-N-(8-methylisoquinolin-1-yl)-N-(piperidin-3-yl)benzamide]
3390 nM | Cc1cccc2ccnc(N(C(=O)c3ccc(Nc4ncco4)cc3F)[C@@H]3CCCNC3)c12 [Example 290, (R)-2-fluoro-N-(8-methylisoquinolin-1-yl)-4-(oxazol-2-ylamino)-N-(piperidin-3-yl) benzamide]
87.1 nM | Cc1nnn(-c2ccc(C(=O)N(c3nccc4cccc(C)c34)[C@@H]3CCCNC3)c(F)c2)n1 [Example 195, (R)-2-fluoro-4-(5-methyl-2H-tetrazol-2-yl)-N-(8-methylisoquinolin-1-yl)-N-(piperidin-3-yl) benzamide]
1550 nM | Cc1cccc2ccnc(N(C(=O)c3ccc(Nc4ncccn4)cn3)[C@@H]3CCCNC3)c12 [Example 184, (R)—N-(8-methylisoquinolin-1-yl)-N-(piperidin-3-yl)-5-(pyrimidin-2-ylamino) picolinamide]
5890 nM | CC1(c2ccno2)CCN(C(=O)N(c2cc3ccccc3cn2)[C@@H]2CCCNC2)CC1 [Example 190, (R)—N-(isoquinolin-3-yl)-4-(isoxazol-5-yl)-4-methyl-N-(piperidin-3-yl)piperidine-1-carboxamide]
355 nM | O=C(c1ccc(-n2nnc3cccnc32)cc1F)N(c1ncccc1-c1ccsc1)[C@@H]1CCCNC1 [Example 177, (R)-4-(3H-[1,2,3]triazolo[4,5-b]pyridin-3-yl)-2-fluoro-N-(piperidin-3-yl)-N-(3-(thiophen-3-yl)pyridin-2-yl)benzamide]
67.6 nM | Cc1cn(-c2ccc(C(=O)N(c3nccc4cccc(C)c34)[C@@H]3CCCNC3)c(F)c2)nn1 [Example 251, (R)-2-fluoro-4-(4-methyl-1H-1,2,3-triazol-1-yl)-N-(8-methylisoquinolin-1-yl)-N-(piperidin-3-yl)benzamide]
1100 nM | O=C(c1ccc(-n2nnc3cccnc32)cc1F)N(c1ncccc1-c1cc[nH]n1)[C@@H]1CCCNC1 [Example 136, (R)—N-(3-(1H-pyrazol-3-yl)pyridin-2-yl)-4-(3H-[1,2,3]triazolo[4,5-b]pyridin-3-yl)-2-fluoro-N-(piperidin-3-yl)benzamide]

Further lines, the compound ahead of its results:

Compound | IC50
CCc1ccc2nnn(-c3ccc(C(=O)N(c4nccc5cccc(C)c45)[C@@H]4CCCNC4)c(F)c3)c2n1 [Example 216, (R)-4-(5-ethyl-3H-[1,2,3]triazolo[4,5-b]pyridin-3-yl)-2-fluoro-N-(8-methylisoquinolin-1-yl)-N-(piperidin-3-yl)benzamide] | 437 nM
NC(=O)CCc1ccc2ccnc(N(C(=O)c3ccc(-n4nnc5cccnc54)cc3F)[C@@H]3CCCNC3)c2c1 [Example 148, (R)-4-(3H-[1,2,3]triazolo[4,5-b]pyridin-3-yl)-N-(7-(3-amino-3-oxopropyl)isoquinolin-1-yl)-2-fluoro-N-(piperidin-3-yl)benzamide] | 13800 nM
Cn1cc(-c2ccc(C(=O)N(c3cc(/C=C/c4ccccc4)ccn3)[C@@H]3CCCNC3)cc2)nn1 [Example 109, (R,E)-4-(1-methyl-1H-1,2,3-triazol-4-yl)-N-(piperidin-3-yl)-N-(4-styrylpyridin-2-yl)benzamide] | > 10000 nM
Cc1cccc2ccnc(N(C(=O)c3ccc(-c4nnn[nH]4)cc3)[C@H]3CCCNC3)c12 [Example 128, (S)—N-(8-methylisoquinolin-1-yl)-N-(piperidin-3-yl)-4-(1H-tetrazol-5-yl)benzamide] | > 10000 nM
Cc1cccc2ccnc(N(C(=O)c3ccc(-n4nnc5cccnc54)cc3F)[C@@H]3CCCNC3)c12 [Example 242, (R)-4-(3H-[1,2,3]triazolo[4,5-b]pyridin-3-yl)-2-fluoro-N-(8-methylisoquinolin-1-yl)-N-(piperidin-3-yl)benzamide] | 38 nM
Cc1cccc2ccnc(N(C(=O)c3ccc(-n4nnc5cccnc54)nc3)[C@@H]3CCCNC3)c12 [Example 245, (R)-6-(3H-[1,2,3]triazolo[4,5-b]pyridin-3-yl)-N-(8-methylisoquinolin-1-yl)-N-(piperidin-3-yl)nicotinamide] | 155 nM
O=C(c1ccc(-n2nnc3cccnc32)cc1F)N(c1nccc2cccc(/C=C/CO)c12)[C@@H]1CCCNC1 [Example 165, (R,E)-4-(3H-[1,2,3]triazolo[4,5-b]pyridin-3-yl)-2-fluoro-N-(8-(3-hydroxyprop-1-en-1-yl)isoquinolin-1-yl)-N-(piperidin-3-yl)benzamide] | 170 nM
CN(C)C(=O)c1cccnc1N(C(=O)c1ccc(-n2nnc3cccnc32)cc1F)[C@@H]1CCCNC1 [Example 247, (R)-2-(4-(3H-[1,2,3]triazolo[4,5-b]pyridin-3-yl)-2-fluoro-N-(piperidin-3-yl)benzamido)-N,N-dimethylnicotinamide] | 5010 nM
N#Cc1ccc2ccnc(N(C(=O)c3ccc(-n4nnc5cccnc54)cc3F)[C@@H]3CCCNC3)c2c1 [Example 156] | 7080 nM
Cc1cccc2ccnc(N(C(=O)N3CCC(O)(c4ccccc4OCc4ccccc4)CC3)[C@@H]3CCCNC3)c12 [Example 297, (R)-4-(2-(benzyloxy)phenyl)-4-hydroxy-N-(8-methylisoquinolin-1-yl)-N-(piperidin-3-yl)piperidine-1-carboxamide] | 7760 nM
Cc1cnc(N(C(=O)c2ccc(-n3nnc4cccnc43)cc2F)[C@@H]2CCCNC2)c2c(C)cccc12 [Example 252, (R)-4-(3H-[1,2,3]triazolo[4,5-b]pyridin-3-yl)-N-(4,8-dimethylisoquinolin-1-yl)-2-fluoro-N-(piperidin-3-yl)benzamide] | 1410 nM
Cc1cc(C)c2c(N(C(=O)c3ccc(-n4nnc5cccnc54)cc3F)[C@@H]3CCCNC3)nccc2c1 [Example 254, (R)-4-(3H-[1,2,3]triazolo[4,5-b]pyridin-3-yl)-N-(6,8-dimethylisoquinolin-1-yl)-2-fluoro-N-(piperidin-3-yl)benzamide] | 61.7 nM
N#Cc1ccc2c(N(C(=O)c3ccc(-n4nnc5cccnc54)cc3F)[C@@H]3CCCNC3)nccc2c1 [Example 147, (R)-4-(3H-[1,2,3]triazolo[4,5-b]pyridin-3-yl)-2-fluoro-N-(6-cyanoisoquinolin-1-yl)-N-(piperidin-3-yl)benzamide] | 1380 nM
O=C(c1ccc(-n2nnc3cccnc32)cc1F)N(c1nccc2ccc(-c3cncnc3)cc12)[C@@H]1CCCNC1 [Example 150, (R)-4-(3H-[1,2,3]triazolo[4,5-b]pyridin-3-yl)-2-fluoro-N-(piperidin-3-yl)-N-(7-(pyrimidin-5-yl)isoquinolin-1-yl)benzamide] | 2290 nM
CC(C)(C)[Si](C)(C)OC/C=C/c1cc2c(N(C(=O)c3ccc(-n4nnc5cccnc54)cc3F)[C@@H]3CCCNC3)nccc2s1 [Example 99, (R,E)-4-(3H-[1,2,3]triazolo[4,5-b]pyridin-3-yl)-N-(2-(3-((tert-butyldimethylsilyl)oxy)prop-1-en-1-yl)thieno[3,2-c]pyridin-4-yl)-2-fluoro-N-(piperidin-3-yl)benzamide] | 2000 nM
Cc1cccc2ccnc(N(C(=O)c3ccc(Nc4nc5ccccn5n4)cc3F)[C@@H]3CCCNC3)c12 [Example 169, (R)-4-([1,2,4]triazolo[1,5-a]pyridin-2-ylamino)-2-fluoro-N-(8-methylisoquinolin-1-yl)-N-(piperidin-3-yl)benzamide] | 316 nM
Cc1cccc2ccnc(N(C(=O)c3ccc(CO)cc3F)[C@@H]3CCCNC3)c12 [Example 168, (R)-2-fluoro-4-(hydroxymethyl)-N-(8-methylisoquinolin-1-yl)-N-(piperidin-3-yl)benzamide] | 5250 nM
Cc1cccc2ccnc(N(C(=O)N3CCC(c4cc(C(N)=O)no4)CC3)[C@@H]3CCCNC3)c12 [Example 288, (R)-5-(1-((8-methylisoquinolin-1-yl)(piperidin-3-yl)carbamoyl)piperidin-4-yl)isoxazole-3-carboxamide] | 1350 nM
Cc1cccc2ccnc(N(C(=O)c3ccc(-c4cnn5cccnc45)cc3F)[C@@H]3CCCNC3)c12 [Example 215, (R)-2-fluoro-N-(8-methylisoquinolin-1-yl)-N-(piperidin-3-yl)-4-(pyrazolo[1,5-a]pyrimidin-3-yl)benzamide] | 269 nM
Cc1ccnc(N(C)c2ccc(C(=O)N(c3nccc4cccc(C)c34)[C@@H]3CCCNC3)c(F)c2)n1 [Example 180, (R)-2-fluoro-4-(methyl (4-methylpyrimidin-2-yl)amino)-N-(8-methylisoquinolin-1-yl)-N-(piperidin-3-yl)benzamide] | 3390 nM
